Results taken from patent US11597739B2, “Enhancing CD8+ T cells for adoptive T cell therapy by inhibiting PTPN1 (PTP1B) and PTPN2 (TC-PTP)” (The Royal Institution for the Advancement of …, priority 2017, dated 2023).

Test system: mouse CD8 T cells differentiated into Tcm cells
Assay: Exhaustion and effector markers after CTL re-stimulation (flow cytometry)
Assay type: cell-based
Details: second stimulation with anti-CD3, anti-CD28 and IL-2 for 5 days
Text: FIG. 8 illustrates that pharmacological inhibition of PTPN1/2 reduces expression of exhaustion markers and increases effector-molecule expression after CTL re-stimulation. Flow cytometric analysis of CD8 T cells differentiated into Tcm cells after 5 days of a second stimulation with anti-CD3 and anti-CD28 in presence or absence of K884. Histograms show the expression of exhaustion markers PD-1, CTLA-4, KLRG1 and LAG-3, and granzyme B and IFN-γ as markers of effector CTLs. Cells are gated on live/CD8+/CD62L^high.
2 μg/ml of 145-2C11 Hamster anti-Mouse CD3e in 300 μl of PBS are plated in 24 flat bottom well non-TC treated plates. Incubate O/N at 4° C. CD8 T cells from spleens of 8-12 weeks old OT-1 transgenic mice are isolated. 4×10^5 cells/ml are counted and resuspended in complete RPMI (RPMI+10% FBS heat inactivated at 55° C. for 45 min+Pen/Strep+55 μM β-Mercaptoethanol). The following 2× solutions are prepared:
0.5 ml of 2× solution is added to the corresponding wells. Incubate for 4-8 days. Every 2 days add inhibitor to the corresponding concentration. When the cells are confluent, expand to 6 cm tissue culture plates adding 4 ml of complete RPMI+20 U/ml of IL-2 and in b add 10 μM K884.
Calculate the specific cell lysis as follows: Specific cell lysis=((Sample−BF)/(AF−BF))×100 10) Flow Cytometry 1. Cell Activation • a. Wash cells with 1 ml of culture medium; • b. Centrifuge cells for 5 min at 300 g; • c. Resuspend cells in culture medium; • d. Prepare 2× solutions (negative control with only culture medium, Positive condition with 50 ng/mL of PMA and 500 ng/mL of lonomycin); • e. Plate 100 μL of cell suspension in 96 well plates (U-bottom); • f. Add 100 μL of 2× solutions in appropriate wells; • g. Incubate 4 hours at 37 C, 5% CO2. 2. Extracellular Staining • a. Record cell quantity transfers per tube; • b. Wash cells with 1 mL of PBS+2% FBS; • c. Centrifuge cells for 5 min at 300 g; • d. Empty tubes by inversion; • e. Add the antibodies for extracellular staining; • f. Incubate 20 min at 4° C.; • g. Wash cells with 1 mL of PBS+2% FBS; • h. Centrifuge cells for 5 min at 300 g; • i. […]

## CCOC(=O)c1cc2cc(C(F)(F)P(=O)(O)O)c(Br)cc2s1 [Ex. 1, ((6-BROMO-2-(ETHOXYCARBONYL)BENZO[B]THIOPHEN-5-YL)DIFLUOROMETHYL)PHOSPHONATE]
  expression of exhaustion markers PD-1, CTLA-4, KLRG1: displayed less exhaustion markers PD-1, CDTLA4 and KLRG1
  expression of the receptor LAG-3: increased expression of the receptor LAG-3
  levels of Granzyme B and IFN-gamma: higher levels of Granzyme B and IFN-gamma
